Measurements taken from patent US20210300940A1 (Merck Patent GmbH, priority 2018, published 2021).
Counter-ions that a name gives are not always drawn.

Assays:
TLR7 = biological target: T1, TLR7 (Homo sapiens, UniProt Q9NYK1); assay: HEK/293 TLR7 Cell Assay; assay type: cell-based; conditions: TLR7/NFKb HEK cells, R848 agonist 10 uM final concentration, Steady-Glo readout; read-out: TLR7 potency
T1 construct: expressed in transfected cells; host or cells: HEK/293 cells carrying TLR7 and an NF-kB luciferase reporter
T1 sequence (Q9NYK1 27-1049): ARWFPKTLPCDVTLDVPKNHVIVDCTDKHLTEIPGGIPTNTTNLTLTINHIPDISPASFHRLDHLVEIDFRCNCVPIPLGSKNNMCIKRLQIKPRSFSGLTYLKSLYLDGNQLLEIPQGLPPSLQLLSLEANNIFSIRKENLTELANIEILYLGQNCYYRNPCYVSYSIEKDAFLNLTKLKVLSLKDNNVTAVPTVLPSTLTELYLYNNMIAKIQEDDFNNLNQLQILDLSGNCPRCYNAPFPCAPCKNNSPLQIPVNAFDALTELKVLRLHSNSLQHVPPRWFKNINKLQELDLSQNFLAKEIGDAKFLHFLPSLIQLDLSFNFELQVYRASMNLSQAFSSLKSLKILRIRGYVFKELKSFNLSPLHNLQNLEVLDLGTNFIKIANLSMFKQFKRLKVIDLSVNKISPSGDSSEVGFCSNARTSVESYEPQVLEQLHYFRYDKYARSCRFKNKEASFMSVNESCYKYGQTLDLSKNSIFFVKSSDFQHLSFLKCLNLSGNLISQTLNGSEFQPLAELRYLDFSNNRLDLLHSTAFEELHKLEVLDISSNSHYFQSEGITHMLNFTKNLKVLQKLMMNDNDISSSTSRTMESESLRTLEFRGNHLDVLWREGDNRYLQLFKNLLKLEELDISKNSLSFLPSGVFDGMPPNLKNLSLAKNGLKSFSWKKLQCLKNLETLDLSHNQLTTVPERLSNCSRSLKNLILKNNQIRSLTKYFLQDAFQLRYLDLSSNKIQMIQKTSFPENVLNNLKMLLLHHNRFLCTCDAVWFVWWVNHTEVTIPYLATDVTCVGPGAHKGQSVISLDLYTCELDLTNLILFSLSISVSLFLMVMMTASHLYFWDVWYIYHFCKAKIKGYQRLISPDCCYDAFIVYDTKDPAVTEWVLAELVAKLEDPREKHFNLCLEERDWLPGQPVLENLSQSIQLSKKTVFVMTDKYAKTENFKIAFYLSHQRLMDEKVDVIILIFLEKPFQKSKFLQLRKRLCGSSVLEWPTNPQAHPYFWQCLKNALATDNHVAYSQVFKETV
Outline: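 TLR7/NF-κB reporter HEK293 cells, 5000/well, cultured 24 h, then preincubated 30 min with compound before R848 agonist (10 uM final). After 5 h stimulation, Steady-Glo luciferase luminescence read.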

TLR8 = biological target: T2, TLR8 (Homo sapiens, UniProt Q9NR97); assay: HEK/293 TLR8 Cell Assay; assay type: cell-based; conditions: HEK cells, R848 agonist 30 uM final concentration, Steady-Glo readout; read-out: TLR8 potency
T2 construct: expressed in transfected cells; host or cells: HEK/293 reporter cells (NF-kB luciferase)
T2 sequence (Q9NR97 27-1041): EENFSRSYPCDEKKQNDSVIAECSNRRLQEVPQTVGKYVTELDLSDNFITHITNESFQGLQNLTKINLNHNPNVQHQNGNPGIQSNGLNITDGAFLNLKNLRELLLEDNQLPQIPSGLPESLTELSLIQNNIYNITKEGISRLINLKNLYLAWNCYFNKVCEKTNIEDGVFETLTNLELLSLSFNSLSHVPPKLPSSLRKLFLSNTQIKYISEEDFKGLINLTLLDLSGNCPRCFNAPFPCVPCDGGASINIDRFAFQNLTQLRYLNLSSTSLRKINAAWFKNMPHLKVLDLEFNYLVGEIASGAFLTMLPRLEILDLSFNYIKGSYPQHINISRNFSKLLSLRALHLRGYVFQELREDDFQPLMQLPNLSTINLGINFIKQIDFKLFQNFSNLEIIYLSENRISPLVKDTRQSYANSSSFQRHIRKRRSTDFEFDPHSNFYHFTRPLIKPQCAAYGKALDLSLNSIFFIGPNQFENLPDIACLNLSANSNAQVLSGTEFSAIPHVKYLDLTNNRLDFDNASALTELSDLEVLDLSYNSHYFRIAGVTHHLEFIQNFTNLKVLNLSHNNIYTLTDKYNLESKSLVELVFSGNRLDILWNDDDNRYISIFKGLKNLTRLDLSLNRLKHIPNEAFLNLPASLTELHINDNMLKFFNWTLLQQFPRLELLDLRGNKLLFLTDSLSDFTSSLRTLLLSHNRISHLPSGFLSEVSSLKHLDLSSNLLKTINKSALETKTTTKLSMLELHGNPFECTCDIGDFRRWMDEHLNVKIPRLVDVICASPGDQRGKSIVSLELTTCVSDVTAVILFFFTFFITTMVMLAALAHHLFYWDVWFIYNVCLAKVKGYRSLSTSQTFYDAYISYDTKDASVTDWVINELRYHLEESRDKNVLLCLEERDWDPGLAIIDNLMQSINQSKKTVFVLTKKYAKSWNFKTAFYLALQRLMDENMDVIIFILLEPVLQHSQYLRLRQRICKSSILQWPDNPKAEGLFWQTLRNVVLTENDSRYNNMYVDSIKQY

Row | SMILES | IC50 (TLR7) | IC50 (TLR8)
1 | C[C@H]1C[C@@H](NC(=O)C[C@H]2CCNC[C@H]2F)CN(c2ccc(C#N)c3ncncc23)C1 [Example 132, N-[(3R,5S)-1-(8-cyanoquinazolin-5-yl)-5-methylpiperidin-3-yl]-2-[(3S,4R)-3-fluoropiperidin-4-yl]acetamide] | < 75 nM | 75 to 150 nM
2 | C[C@@H]1CN(c2ccc(C#N)c3nccnc23)C[C@H](C(=O)NCC2CS(=O)(=O)C2)O1 [Example 258, (2R,6R)-4-(8-cyanoquinoxalin-5-yl)-N-[(1,1-dioxo-1λ^6-thietan-3-yl)methyl]-6-methylmorpholine-2-carboxamide] | < 75 nM | > 150 nM
3 | N[C@H](CO)C(=O)N[C@@H]1C[C@H](C(F)(F)F)CN(c2ccc(C(F)(F)F)c3ncccc23)C1 [Example 172, (R)-2-Amino-3-hydroxy-N-[(3R,5S)-5-trifluoromethyl-1-(8-trifluoromethyl-quinolin-5-yl)-piperidin-3-yl]-propionamide] | 75 to 150 nM | > 150 nM
4 | C[C@H]1C[C@@H](NC(=O)Cc2cnn(C)c2)CN(c2cc(F)c(C#N)c3ncccc23)C1 [Example 58, N-[(3R,5S)-1-(8-Cyano-7-fluoro-quinolin-5-yl)-5-methyl-piperidin-3-yl]-2-(1-methyl-1H-pyrazol-4-yl)-acetamide] | > 150 nM | 75 to 150 nM
5 | C[C@H]1C[C@@H](NC(=O)[C@@H]2CCCN2)CN(c2ccc(C#N)c3nccnc23)C1 [Example 175, (S)-Pyrrolidine-2-carboxylic acid [(3R,5S)-1-(8-cyano-quinoxalin-5-yl)-5-methyl-piperidin-3-yl]-amide] | 75 to 150 nM | < 75 nM
6 | Cc1ccc(N2C[C@@H](C)C[C@@H](n3ccnc3)C2)c2cccnc12 [Example 159, 5-[(3R,5S)-3-(1H-imidazol-1-yl)-5-methylpiperidin-1-yl]-8-methylquinoline] | > 150 nM | < 75 nM
7 | N#Cc1ccc(N2C[C@@H](C(=O)NC[C@@]3(F)CCNC3)O[C@@H](C(F)(F)F)C2)c2nccnc12 (single isomer, unassigned) [Example 308] | < 75 nM | < 75 nM
8 | N#Cc1ccc(N2C[C@@H](C(=O)NC[C@]3(F)CCNC3)O[C@@H](C(F)(F)F)C2)c2cccnc12 (single isomer, unassigned) [Example 313] | < 75 nM | < 75 nM
9 | C[C@H]1CN(c2ccc(C#N)c3nccnc23)C[C@H](CN2CCC(N3CCCC3)CC2)O1 [Example 232, 8-[(2S,6S)-2-Methyl-6-(4-pyrrolidin-1-yl-piperidin-1-ylmethyl)-morpholin-4-yl]-quinoxaline-5-carbonitrile] | < 75 nM | < 75 nM
10 | CNC(=O)CCN[C@@H]1C[C@H](C)CN(c2ccc(C(F)(F)F)c3ncccc23)C1 [Example 56, N-Methyl-3-[(3R,5S)-5-methyl-1-(8-trifluoromethyl-quinolin-5-yl)-piperidin-3-ylamino]-propionamide] | 75 to 150 nM | < 75 nM
11 | C[C@H]1C[C@@H](NCC2(O)CCOCC2)CN(c2ccc(C(F)(F)F)c3nccnc23)C1 [Example 26, 4-{[(3R,5S)-5-Methyl-1-(8-trifluoromethyl-quinoxalin-5-yl)-piperidin-3-ylamino]-methyl}-tetrahydro-pyran-4-ol] | < 75 nM | < 75 nM
12 | C[C@@H]1CN(c2cnc(C(F)(F)F)c3ncccc23)C[C@H](CNC[C@H]2CN(C)CCO2)O1 (single isomer, unassigned) [Example 385] | > 150 nM | < 75 nM
13 | C[C@@H]1CN(c2ccc(C#N)c3nccnc23)C[C@H](C(=O)NC[C@@H](C)O)O1 [Example 238, (2R,6R)-4-(8-Cyano-quinoxalin-5-yl)-6-methyl-morpholine-2-carboxylic acid ((R)-2-hydroxy-propyl)-amide] | < 75 nM | < 75 nM
14 | COc1ncc(N2C[C@@H](C)C[C@@H](N)C2)c2nccnc12 [Example 199, (3R,5S)-1-(5-Methoxy-pyrido[3,4-b]pyrazin-8-yl)-5-methyl-piperidin-3-ylamine] | 75 to 150 nM | < 75 nM
15 | Cc1nnc([C@H]2CN(c3ccc(C#N)c4nccnc34)C[C@@H](C)O2)o1 (racemic) [Example 212, 8-[(2R,6R)-2-Methyl-6-(5-methyl-[1,3,4]oxadiazol-2-yl)-morpholin-4-yl]-quinoxaline-5-carbonitrile] | > 150 nM | < 75 nM
16 | C[C@H]1C[C@@H](NCC2CCC(=O)N2)CN(c2ccc(C(F)(F)F)c3nccnc23)C1 (stereo partly drawn) [Example 28, 5-{[(3R,5S)-5-Methyl-1-(8-trifluoromethyl-quinoxalin-5-yl)-piperidin-3-ylamino]-methyl}-pyrrolidin-2-one] | < 75 nM | < 75 nM
17 | C[C@H]1C[C@@H](NCC2CCC(=O)N2)CN(c2ccc(C(F)(F)F)c3ncccc23)C1 (stereo partly drawn) [Example 48, 5-{[(3R,5S)-5-Methyl-1-(8-trifluoromethyl-quinolin-5-yl)-piperidin-3-ylamino]-methyl}-pyrrolidin-2-one] | < 75 nM | < 75 nM
18 | Cc1ccc(N2C[C@H](NC(=O)CC3CCN(C(C)C)CC3)CC(F)(F)C2)c2cccnc12 [Example 110, N—[(R)-5,5-Difluoro-1-(8-methyl-quinolin-5-yl)-piperidin-3-yl]-2-(1-isopropyl-piperidin-4-yl)-acetamide] | < 75 nM | > 150 nM
19 | C[C@@H]1CN(c2cnc(C#N)c3ncccc23)C[C@H](C(=O)NC[C@H]2CN(C)CCO2)O1 [Example 274, (2R,6R)-4-(8-Cyano-[1,7]naphthyridin-5-yl)-6-methyl-morpholine-2-carboxylic acid ((S)-4-methyl-morpholin-2-ylmethyl)-amide] | < 75 nM | < 75 nM
20 | C[C@H]1C[C@@H](N)CN(c2cnc(C#N)c3ncccc23)C1 [Example 8, 5-((3R,5S)-3-Amino-5-methyl-piperidin-1-yl)-[1,7]naphthyridine-8-carbonitrile hydrochloride] | < 75 nM | < 75 nM
21 | C[C@@H]1CN(c2cnc(C#N)c3ncccc23)C[C@H](Cn2cc(C(=O)O)cn2)O1 [Example 365, 1-[(2R,6R)-4-(8-Cyano-[1,7]naphthyridin-5-yl)-6-methyl-morpholin-2-ylmethyl]-1H-pyrazole-4-carboxylic acid] | < 75 nM | < 75 nM
22 | C[C@H]1C[C@@H](NC(=O)CCS(=O)(=O)N(C)C)CN(c2ccc(C#N)c3nccnc23)C1 [Example 195, N-[(3R,5S)-1-(8-Cyano-quinoxalin-5-yl)-5-methyl-piperidin-3-yl]-3-dimethylsulfamoyl-propionamide] | 75 to 150 nM | 75 to 150 nM
